Results from patent publication US11066421B1, “Synthetic cinchona alkaloids against cancer” (Ares Pharmaceuticals, LLC, priority 2021, dated 2021).
Like-named read-outs stand apart in the source and are kept apart here.

Tests used:
[1] = system: MOLT-3; test: MTT cytotoxicity assay, MOLT-3; assay type: cell-based, human; conditions: read-out: IC50 against MOLT-3
Description: (§1) Human B-lineage acute lymphoblastic leukemia (ALL) cell line NALM-6 and T-lineage ALL/lymphoma cell line MOLT-3 were obtained from American Type Culture Collection (Manassas, Va.). Cell lines were propagated in RPMI 1640 supplemented with 10% FCS, 4 mM glutamine, 100 units/ml penicillin G, and […] streptomycin sulfate. All tissue culture reagents were obtained from Life Technologies Inc. (Life Technologies, Inc., Gaithersburg, Md.). Cell lines were cultivated for a minimum of two passages after thawing prior to experimentation.
(§2) The cytotoxicity of the compounds were tested against human ALL cell lines using MTT assays (Roche Molecular Biochemicals, Indianapolis, Ind.), as described previously R. K. Narla et al., 1998, Clin Cancer Res 4:1405-14). Briefly, exponentially growing tumor cells were seeded into a 96-well plate at a density of 4×10^4 cells/well and incubated in medium containing the cinchona alkaloid compounds at concentrations ranging from 0.7 to 100 μM for 48 h at 37° C. in a humidified 5% CO2 atmosphere. To each well, 10 μL of MTT (final concentration, 0.5 mg/ml) was added, and the plates were incubated at 37° C. for 4 h to allow MTT to form formazan crystals by reacting with metabolically active cells. The formazan crystals were solubilized overnight at 37° C. in a solution containing 10% SDS and 0.01 M HCl. The absorbance of each well was measured in a microplate reader (Labsystems) at 540 nm and a reference wavelength of 690 nm. To translate the A540 values into the number of live cells in each well, the A540 values were compared to those on standard A540 versus cell number curves generated for each cell line. The percentage of survival was calculated using the formula: % survival=[Live cell number (test)/Live cell number (control)]×100. The IC50 values were calculated by nonlinear regression analysis using the graphed Prism Software version 2.0 (GraphPad Software, Inc., San Diego, Calif.).

[2] = system: NALM-6; test: MTT cytotoxicity assay, NALM-6; assay type: cell-based, human; conditions: read-out: IC50 against NALM-6
Description: as §1, §2

[3] = system: mammary tumors of MMTV/neu transgenic mice; test: MMTV/neu transgenic mouse model of HER2+ breast cancer; assay type: in vivo; conditions: 9-week observation; for tumor shrinkage and tumor growth: AP-8 2 mg/kg i.p. twice daily, paclitaxel 6.7 mg/kg, gemcitabine 33.7 mg/kg; for prevention of tumor progression compared with AP-8: paclitaxel 6.7 mg/kg i.p., gemcitabine 33.7 mg/kg i.p.
Description: The predictive value of genetically engineered mouse (GEM) models to predict the clinical effectiveness of anti-cancer drugs is well established (Richmond A, Su Y. Mouse xenograft models vs GEM models for human cancer therapeutics. Dis Model Mech. 2008; 1(2-3):78-82. doi:10.1241-2/dmm.0.000976). We used the transgenic mouse model of HER2+ chemotherapy-resistant breast cancer to examine the in vivo anti-cancer activity of AP-8. Overexpression of the wild type Neu in the mammary glands of transgenic mice induces metastatic breast cancer. Accordingly, in the MMTV/Neu transgenic strain, the wild-type neu is overexpressed in the mammary gland under the control of the MMTV long terminal repeat. This animal model has been used to analyze the efficacy of new therapeutic approaches to prevent or treat Her2/neu overexpressing malignancies (Uckun, Dibirdik). MMTV/Neu transgenic mice [FVB/N-TgN(MMTV/neu)202MUL; Jackson Laboratory, Bar Harbor, Me.] were bred to produce multiple litters in a controlled SPF environment (12 h light/12 h-dark photoperiod, 22±1° C., 60±10% relative humidity). All mice were housed in microisolator cages (Lab Products, Inc., Maywood, N.Y., USA) containing autoclaved bedding in a controlled specific pathogen-free (SPF) environment (12 h light/12 h-dark photoperiod, 22±1° C., 60±10% relative humidity). Animal studies were approved by the institutional Animal Care and Use Committee of Drug Discovery Enterprises and all animal care procedures conformed to the Guide for the Care and Use of Laboratory Animals of the National Research Council. The genotype of mice was confirmed by multiplex polymerase chain reaction (PCR) tests as previously reported (F. M. Uckun et al., 2007, Bioorganic Med. Chem. 15:800-14; I. Dibirdik et al., 2010, J Nanomed and Nanotechnol. 1:001-4).
Neu transgenic mice carrying one or more tumors were randomly placed in the study. For the evaluation of tumor kinetics, tumor-bearing mice were randomly assigned to either vehicle control or treatment groups. Tumor growth was determined by the measurement of tumors with a caliper in three dimensions three days a week and expressed as tumor volume in cubic millimeters (mm^3). Tumor volumes were calculated using the formula for the volume of a prolate spheroid, V=4/3×3.14×length/2×width/2×depth/2. Due to the large heterogeneity in transgenic tumor volumes on day 0, tumor growth for each mouse was normalized to the starting volume for that particular tumor. Therefore, each mouse also served as its own control, and the tumor growth curves were generated to show the rate of change in tumor volumes.
AP-8 (50 μg˜2 mg/kg in 50 μL DMSO as vehicle) (10 mice, 12 target mammary tumors, Initial average tumor volume=787±125 mm^3) was administered by twice daily intraperitoneal injections on 5 consecutive days per week. Paclitaxel (10 mice, 13 target mammary tumors, Initial average tumor volume=554±79 mm^3) was administered intraperitoneally on days 1, 3, and 5 of each week at a dose level of 6.7 mg/kg ([…]). Gemcitabine (13 mice, 18 target mammary tumors, Initial average tumor volume=549±60 mm^3) was administered intraperitoneally on days 1 and 8 every 4 weeks at a dose level of 33.7 mg/kg (˜1 g/m^2). Control mice (8 mice, 10 mammary tumors, Initial average tumor volume=293±61 mm^3) were treated by twice daily intraperitoneal injections of vehicle alone (50 μL DMSO) on 5 consecutive days per week. […]

2,4,6-Tri(9-O-cinchonidinyl)pyrimidine [AP-2]
IC50 ([1]; 48 h): 5.8 µM
IC50 ([2]; 48 h): 11.4 µM

2,4,6-Tri (9-O-dihydrocinchonidinyl)pyrimidine [AP-6]
IC50 ([1]; 48 h): 11.4 µM
IC50 ([2]; 48 h): 6 µM

C=CC1CN2CCC1CC2C(Oc1cc(OC(c2ccnc3ccc(OC)cc23)C2CC3CCN2CC3C=C)nc(OC(c2ccnc3ccc(OC)cc23)C2CC3CCN2CC3C=C)n1)c1ccnc2ccc(OC)cc12 (single isomer, unassigned) [AP-3, 2,4,6-Tri(9-O-quininyl)pyrimidine]
IC50 ([1]; 48 h): 4.5 µM
IC50 ([2]; 48 h): 3.6 µM

Nc1ccn([C@@H]2O[C@H](CO)[C@@H](O)C2(F)F)c(=O)n1 [gemcitabine, Gemcitabine]
tumor shrinkage and tumor growth [3]: Neither paclitaxel nor gemcitabine at the clinically applicable dose levels used in these experiments induced tumor shrinkage
prevention of tumor progression compared with AP-8 [3]: less effective than AP-8 in preventing tumor progression

CC[C@@H]1CN2CCC1C[C@@H]2C(Oc1cc(O[C@@H](c2ccnc3ccc(OC)cc23)[C@@H]2CC3CCN2C[C@@H]3CC)nc(OC(c2ccnc3ccc(OC)cc23)[C@H]2CC3CCN2C[C@H]3CC)n1)c1ccnc2ccc(OC)cc12 (some centres unmarked) [AP-7, 2,4,6-Tri (9-O-dihydroquininyl)pyrimidine]
IC50 ([1]; Homo sapiens, MOLT-3, 48 h): 3.5 µM
IC50 ([2]; Homo sapiens, NALM-6, 48 h): 3.3 µM

C=CC1CN2CCC1CC2C(Oc1cc(OC(c2ccnc3ccc(OC)cc23)C2CC3CCN2CC3C=C)nc(OC(c2ccnc3ccc(OC)cc23)C2CC3CCN2CC3C=C)n1)c1ccnc2ccc(OC)cc12 (single isomer, unassigned) [AP-4, 2,4,6-Tri (9-O-quinidinyl)pyrimidine]
IC50 ([1]; 48 h): 3.1 µM
IC50 ([2]; 48 h): 2.8 µM

CC(=O)O[C@H]1C(=O)[C@@]2(C)[C@H]([C@H](OC(=O)c3ccccc3)[C@]3(O)C[C@H](OC(=O)[C@H](O)[C@@H](NC(=O)c4ccccc4)c4ccccc4)C(C)=C1C3(C)C)[C@]1(OC(C)=O)CO[C@@H]1C[C@@H]2O [paclitaxel, Paclitaxel]
tumor shrinkage and tumor growth [3]: Neither paclitaxel nor gemcitabine at the clinically applicable dose levels used in these experiments induced tumor shrinkage
prevention of tumor progression compared with AP-8 [3]: less effective than AP-8 in preventing tumor progression
